The text below walks through data of US20040242459A1 (priority 2001, published 2004).

Each structure is given as a SMILES string. Several values for one entry are separate records, joined by “and”; a condition that tells them apart may be missing. Equal entries are not always repeated.

The term EC50 denotes the midpoint of the concentration-response curve. Low values mean higher potency in that assay, high ones lower potency in that assay. A word on the IC50: it is the concentration needed to halve the response being measured.

One experiment has as its target T1, hPPARα/GAL4 (Homo sapiens, UniProt Q07869).
T1 construct: expressed in transfected cells; host or cells: COS-1 cells
The experiment is described as follows: Gal-4 hPPAR transactivation assay in COS-1 cells (alpha). The experiment is classed as cell-based. As to conditions: two values separated by a slash in some cells. On the procedure: (§1) The chimeric receptor expression constructs, pcDNA3-hPPARγ/GAL4, pcDNA3-hPPARδ/GAL4, pcDNA3-hPPARα/GAL4 were prepared by inserting the yeast GAL4 transcription factor DBD adjacent to the ligand binding domains (LBDs) of hPPARγ, hPPARδ, hPPARα, respectively. The reporter construct, pUAS(5×)-tk-luc was generated by inserting 5 copies of the GAL4 response element upstream of the herpes virus minimal thymidine kinase promoter and the luciferase reporter gene. pCMV-lacZ contains the galactosidase Z gene under the regulation of the cytomegalovirus promoter. COS-1 cells were seeded at 12×10^3 cells/well in 96 well cell culture plates in high glucose Dulbecco's modified Eagle medium (DMEM) containing 10% charcoal stripped fetal calf serum (Gemini Bio-Products, Calabasas, Calif.), nonessential amino acids, 100 units/ml Penicillin G and […] Streptomycin sulfate at 37° C. in a humidified atmosphere of 10% CO2. After 24 h, transfections were performed with Lipofectamine (GIBCO BRL, Gaithersburg, Md.) according to the instructions of the manufacturer. […] Luciferase activity in cell extracts was determined using Luciferase Assay Buffer (Promega, Madison, Wis.) in an ML3000 luminometer (Dynatech Laboratories, Chantilly, Va.). β-galactosidase activity was determined using β-D-galactopyranoside (Calbiochem, San Diego, Calif.).

Experiment [1] deals with T2, recombinant human PPARγ (GST-PPARγ) (Homo sapiens, UniProt P37231).
T2 construct: The full length human cDNA for PPARγ 2 was subcloned into the pGEX-2 T expression vector; made in house; host or cells: E. coli
T2 sequence (P37231 1-505): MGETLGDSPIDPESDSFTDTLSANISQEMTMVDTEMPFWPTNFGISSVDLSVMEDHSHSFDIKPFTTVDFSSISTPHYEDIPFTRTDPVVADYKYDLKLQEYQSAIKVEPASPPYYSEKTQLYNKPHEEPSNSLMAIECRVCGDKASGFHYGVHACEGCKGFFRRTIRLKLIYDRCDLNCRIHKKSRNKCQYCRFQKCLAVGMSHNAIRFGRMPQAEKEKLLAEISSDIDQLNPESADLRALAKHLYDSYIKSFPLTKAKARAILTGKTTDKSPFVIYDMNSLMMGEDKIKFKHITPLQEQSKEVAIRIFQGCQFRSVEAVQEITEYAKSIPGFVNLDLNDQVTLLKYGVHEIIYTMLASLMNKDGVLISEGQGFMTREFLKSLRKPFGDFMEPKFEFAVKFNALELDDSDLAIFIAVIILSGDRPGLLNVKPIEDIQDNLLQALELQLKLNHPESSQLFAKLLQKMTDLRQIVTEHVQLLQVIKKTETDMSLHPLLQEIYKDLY
The experiment is described as follows: Scintillation Proximity Assay, displacement of [3H2]Compound A from PPARγ. The experiment is classed as binding. The conditions noted are these: human PPARγ binding; read-out: IC50 (μM: SPA or BND) Gamma. From the text:
(§2) As an approach to identifying human PPAR agonists, a Scintillation Proximity Assay was used to characterize PPAR-γ, PPAR-δ, and PPAR-α ligands.
(§3) Human PPARγ2, human PPARδ and human PPARα were expressed as GST-fusion proteins in E. coli. The full length human cDNA for PPARγ 2 was subcloned into the pGEX-2 T expression vector (Amersham Pharmacia Biotech, Inc.). The full length human cDNAs for PPARδ and PPARα were subcloned into the pGEX-KT expression vector (Amersham Pharmacia Biotech, Inc.). E. coli containing the respective plasmids were propagated, induced, and harvested by centrifugation. The resuspended pellet was broken in a French press and debris removed by centrifugation. Recombinant human PPAR receptors were purified by affinity chromatography on glutathione sepharose. After application to the column, and one wash, receptor was eluted with glutathione. Glycerol (10%) was added to stabilize the receptor and aliquots were stored at −80° C.
(§4) After incubation for ˜16 h at 15° C. with shaking, the assay plates were counted in a Packard Topcount with quench correction.
Background: In a scintillation proximity assay essentially only radioactivity close to the scintillant gives light.

Experiment [2] deals with T3, recombinant human PPARα (GST-PPARα) (Homo sapiens, UniProt Q07869).
T3 construct: The full length human cDNAs for PPARδ and PPARα were subcloned into the pGEX-KT expression vector; made in house; host or cells: E. coli
T3 sequence (Q07869 1-468): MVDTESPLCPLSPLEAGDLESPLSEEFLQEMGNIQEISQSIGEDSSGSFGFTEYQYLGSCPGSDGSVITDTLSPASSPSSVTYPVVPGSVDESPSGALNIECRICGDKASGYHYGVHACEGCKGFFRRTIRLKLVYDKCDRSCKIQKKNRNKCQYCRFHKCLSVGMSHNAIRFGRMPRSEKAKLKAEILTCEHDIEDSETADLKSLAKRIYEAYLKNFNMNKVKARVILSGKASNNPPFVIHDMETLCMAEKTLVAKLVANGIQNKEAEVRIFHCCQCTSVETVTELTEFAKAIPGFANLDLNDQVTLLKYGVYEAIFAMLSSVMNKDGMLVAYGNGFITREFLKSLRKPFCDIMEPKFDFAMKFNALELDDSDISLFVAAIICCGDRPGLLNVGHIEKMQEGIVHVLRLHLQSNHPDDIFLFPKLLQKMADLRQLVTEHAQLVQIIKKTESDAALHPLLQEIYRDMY
The experiment is described as follows: Scintillation Proximity Assay, displacement of [3H2]Compound A from PPARα. The experiment is classed as binding. The conditions noted are these: human PPARα binding; read-out: IC50 (μM: SPA or BND) Alpha.
Text: as §2, §3, §4

For experiment [3], the system named is PPAR-α, PPAR-γ and PPAR-δ. The experiment is described as follows: Classification of ligands according to their PPAR activity (Table A). Further details: species or system human. As to conditions: classification based on IC50 and EC50 data of Table B.
The next experiment deals with T4, hPPARδ/GAL4 (Homo sapiens, UniProt Q03181).
T4 construct: expressed in transfected cells; host or cells: COS-1 cells
The experiment is described as follows: Gal-4 hPPAR transactivation assay in COS-1 cells (delta). The experiment is classed as cell-based. The conditions noted are these: two values separated by a slash in some cells. On the procedure:
as §1

T1 sequence (P04386 1-147 partner limits assumed, one chain of several): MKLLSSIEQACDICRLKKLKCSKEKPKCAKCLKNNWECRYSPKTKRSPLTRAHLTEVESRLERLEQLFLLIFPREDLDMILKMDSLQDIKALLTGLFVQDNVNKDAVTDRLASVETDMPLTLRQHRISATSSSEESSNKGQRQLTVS
T4 sequence (Q03181 211-439 limits assumed): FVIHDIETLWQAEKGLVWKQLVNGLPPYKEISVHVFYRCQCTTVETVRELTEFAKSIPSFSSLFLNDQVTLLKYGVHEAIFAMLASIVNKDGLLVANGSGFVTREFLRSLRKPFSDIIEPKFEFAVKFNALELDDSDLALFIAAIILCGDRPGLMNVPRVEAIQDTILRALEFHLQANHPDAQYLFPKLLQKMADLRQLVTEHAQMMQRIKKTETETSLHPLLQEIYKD
T4 sequence (P04386 1-147 partner limits assumed): as the sequence (P04386 1-147 partner limits assumed, one chain of several) above

`CCCc1cc(Oc2ccccc2)ccc1OCCc1cc2cc(CC(=O)O)ccc2[nH]1` [Compound 2, {2-[2-(4-phenoxy-2-propylphenoxy)ethyl]-1H-indol-5-yl}acetic acid]: the half-maximal effective concentration (EC50) on hPPARα/GAL4 was 1.05 µM and 1.2 µM; on hPPARδ/GAL4, 3 µM. For the same molecule, the IC50 came out at 0.097 µM in experiment [1] and 1.48 µM in experiment [2]. Also, the “PPAR Activity” value in experiment [3] is reported as “Gamma Agonist”.
